In patent US9206198B2, “Inhibitors of the renal outer medullary potassium channel” (Merck Sharp & Dohme Corp., priority 2012, dated 2015):

Legend:
Kir1.1 (ROMK1) = Kir1.1 (ROMK1) (Homo sapiens (Human), UniProt P48048); assay: Electrophysiology Assay (whole cell voltage clamp, IonWorks Quattro); assay type: cell-based; conditions: Chinese hamster ovary cells stably expressing Kir1.1; block during voltage step to 0 mV
Procedure: Block of Kir1.1 (ROMK1) currents was examined by whole cell voltage clamp (Hamill et. al. Pfluegers Archives 391:85-100 (1981)) using the IonWorks Quattro automated electrophysiology platform (Molecular Devices, Sunnyvale, Calif.). Chinese hamster ovary cells stably expressing Kir1.1 channels were maintained in T-75 flasks in cell culture media in a humidified 10% CO2 incubator at 37° C. Prior to an experiment, Kir1.1 expression was induced by overnight incubation with 1 mM sodium butyrate. On the day of the experiment, cells were dissociated with 2.5 mL of Versene (Invitrogen 15040-066) for approximately 6 min at 37° C. and suspended in 10 mL of bath solution containing (in mM): 150 NaCl, 10 KCl, 2.7 CaCl2, 0.5 MgCl2, 5 HEPES, pH 7.4. After centrifugation, the cell pellet was resuspended in approximately 4.0 mL of bath solution and placed in the IonWorks instrument. The intracellular solution consisted of (in mM): 80 K gluconate, 40 KCl, 20 KF, 3.2 MgCl2, 3 EGTA, 5 Hepes, pH 7.4. Electrical access to the cytoplasm was achieved by perforation in 0.13 mg/mL amphotericin B for 4 min. Amphotericin B (Sigma A-4888) was prepared as a 40 mg/mL solution in DMSO. Voltage protocols and current recordings were performed using the IonWorks HT software/hardware system. Currents were sampled at 1 kHz. No correction for liquid junction potentials was used. The test pulse, consisting of a 100 ms step to 0 mV from a holding potential of −70 mV, followed by a 100 ms voltage ramp from −70 mV to +70 mV, was applied before and after a 6 min compound incubation period. Test compounds were prepared by diluting DMSO stock solutions into the bath solution at 3× the final concentration and placed in the instrument in 96-well polypropylene plates. Current amplitudes were measured using the IonWorks software. To assess compound potency, the fractional block during the voltage step to 0 mV was calculated in Microsoft Excel (Microsoft, Redmond, Calif.), and dose-response curves were fitted with Igor Pro 4.0 (WaveMetrics, Lake Oswego, Oreg.). Normally, a control compound is included to support that the assay is giving consistent results compared to previous measurements, although the control is not required to obtain the results for the test compounds.

hROMK (hKir1.1) = hROMK (hKir1.1) (Homo sapiens (Human), UniProt P48048); assay: Thallium Flux Assay (ROMK channel functional thallium flux assay, FLIPR-Tetra); assay type: cell-based; conditions: HEK293 cells stably expressing hROMK
Procedure: Cell Culture Conditions— HEK293 cells stably expressing hROMK (hKir1.1) were grown at 37° C. in a 10% CO2 humidified incubator in complete growth media: Dulbecco's Modified Eagle Medium supplemented with non-essential amino acids, Penicillin/Streptomycin/Glutamine, G418 and FBS. At >80% confluency, aspirate the media from the flask and rinse with 10 mL Calcium/Magnesium-free PBS. Add 5 mL of 1× trypsin (prepared in Ca/Mg Free PBS) to T-225 flask and return flask to 37° C./CO2 incubator for 2-3 minutes. To dislodge the cell, gently bang the side of the flask with your hand. Triturate the cells completely and then transfer the cells to 25 mL complete media. Centrifuge at 1,500 rpm for 6 min followed by resuspension in complete growth media and determine cell concentration. For typical re-seeding, 4E6 cells/T-225 flask will attain >80% confluency in 4 days. Under ideal growth conditions and appropriate tissue culture practices, this cell line is stable for 40-45 passages.
FluxOR Kit Components (Invitrogen F10017)
• FluxOR™ Reagent (Component A) • FluxOR™ Assay Buffer (Component B)—10× Concentrate • PowerLoad™ Concentrate (Component C)—100× Concentrate • Probenecid (Component D)—Lyophilized sample is kept at −20° C. Water soluble, 100×after solubilization in 1 mL water. Store at 4° C. • FluxOR™ Chloride-free Buffer (Component E)—5× Concentrate • Potassium sulfate (K2SO4) Concentrate (Component F)—125 mM in water. Store at 4° C. • Thallium sulfate (Tl2SO4) Concentrate (Component G)—50 mM in water. Store at 4° C. • DMSO (dimethyl sulfoxide, Component H)—1 mL (100%) Reagent Preparation: FluxOR Working Solutions • 1000× FluxOR™ Reagent: Reconstitute a vial of component A in 100 μl DMSO; Mix well; Store 10 μl aliquots at −20° C. • 1× FluxOR™ Assay Buffer: Dilute Component B 10-fold with water; Adjust pH to 7.4 with Hepes/NaOH; Filter and store at 4° C. • Probenecid/Assay Buffer: 100 mL of 1× FluxOR™ Assay Buffer; 1 mL of reconstituted component D; Store at 4° C. • Loading Buffer (per microplate): 10 μl 1000× FluxOR™ Reagent; 100 μl component C; 10 mL Probenecid/Assay Buffer • Compound Buffer (per microplate): 20 mL Probenecid/Assay Buffer; 0.3 mM ouabain (10 mM ouabain in water can be stored in amber bottle/aluminum foil at room temperature); Test compound • 1× FluxOR™ Chloride-Free Buffer: Prepare 1× working solution in water. Can be stored at room temperature • Stimulant Buffer (prepared at 5× final concentration in 1× FluxOR™ Chloride-Free Buffer): 7.5 mM Thallium sulfate and 0.75 mM Potassium sulfate (to give a final assay concentration of 3 mM Thallium 0.3 mM Potassium). Store at 4° C. when not in use. If kept sterile, this solution is good for months.
Assay Protocol—The ROMK channel functional thallium flux assay is performed in 384 wells, using the FLIPR-Tetra instrument. HEK-hKir1.1 cells are seeded in Poly-D-Lysine microplates and kept in a 37° C.-10% CO2 incubator overnight. On the day of the experiment, the growth media is replaced with the FluxOR™ reagent loading buffer and incubated, protected from light, at ambient temperature (23-25° C.) for 90 min. The loading buffer is replaced with assay buffer±test compound followed by 30 min incubation at ambient temperature, where the Thallium/Potassium stimulant is added to the microplate.
• 1. Seed HEK-hKir1.1 cells ([…] at 20,000 cells/well) in 384-well PDL coated Microplates • 2. Allow cells to adhere overnight in humidified 37° C./10% CO2 incubator • 3. Completely remove cell growth media from microplate and replace with 25 μl loading buffer • 4. Incubate Microplate at room temperature, protected form light, for 90 min • 5. Remove loading buffer and replace with 25 μl 1× Assay Buffer±test compound. • 6. Incubate microplate at room temperature, protected from light, for 30 min • 7. At FLIPR-Tetra 384: Add stimulant (Thallium/Potassium) solution to microplate and monitor fluorescence. Excitation=400 nm, Emission=460 & 580 nm. Collect data for 10 min.

Sequence of Kir1.1 (ROMK1) (P48048 whole entry, species assumed): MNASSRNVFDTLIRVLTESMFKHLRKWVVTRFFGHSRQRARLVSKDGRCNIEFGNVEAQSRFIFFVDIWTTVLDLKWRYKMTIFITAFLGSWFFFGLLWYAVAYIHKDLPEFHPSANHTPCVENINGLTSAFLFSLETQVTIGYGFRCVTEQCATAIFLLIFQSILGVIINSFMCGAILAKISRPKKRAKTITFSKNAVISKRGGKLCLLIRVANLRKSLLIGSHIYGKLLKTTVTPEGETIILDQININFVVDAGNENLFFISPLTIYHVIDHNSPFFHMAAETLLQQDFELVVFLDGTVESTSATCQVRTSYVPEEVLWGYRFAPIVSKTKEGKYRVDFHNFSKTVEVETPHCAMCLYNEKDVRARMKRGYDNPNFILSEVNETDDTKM
Sequence of hROMK (hKir1.1) (P48048 whole entry): as the sequence (P48048 whole entry, species assumed) above

Row | IC50 (Kir1.1 (ROMK1)) [nM] | IC50 (hROMK (hKir1.1)) [nM] | Structure (SMILES)
1 | 20 | 310 | CO[C@@H](CN1CCC2(CC1)CCN(C1=CC(=O)OC1)C2=O)c1ccc2c(c1C)COC2=O [Example 51, 8-[(2R)-2-methoxy-2-(4-methyl-1-oxo-1,3-dihydro-2-benzofuran-5-yl)ethyl]-2-(5-oxo-2,5-dihydrofuran-3-yl)-2,8-diazaspiro[4.5]decan-1-one]
2 | 50 | 40 | COC1CN(C[C@H](O)c2ccc3c(c2C)COC3=O)CCC12CCN(C1=C(C)C(=O)OC1)C2=O (stereo partly shown) [Example 83]
